The record followed here is patent EP0059645A1, “Method and kit for identification of beta-lactamases” (NATIONAL RESEARCH DEVELOPMENT CORPORATION, priority 1981, dated 1982).

Common to all, as to assay: Competitive assay with nitrocefin (RSAI)
In one assay the target is TEM-2 (Escherichia coli, UniProt P62593, Q37K). The format is biochemical, E. coli 1725E. The source says:
(§1) It is convenient to express the results in terms of a Relative Substrate Affinity Index (RSAI) value.
(§2) RSAI = Concentration of competing substrate which gives 50% inhibition of ring-opening hydrolysis of the chromogenic substrate
(§3) Concentration of chromogenic substrate in the assay A high RSAI value therefore indicates a low affinity of the beta-lactamase for that competing substrate, and therefore predicts resistance of a beta-lactam competing substrate to hydrolysis by the beta-lactamase. Low RSAI values, in contrast, predict sensitivity to hydrolysis by a beta-lactamase.
(§4) Beta-lactam antibiotics which bind to the TEM-2 enzyme compete with nitrocefin in the assay. […] . This concentration of ampicillin is a direct estimate of the relative affinity of the TEM-2 enzyme for ampicillin. […] . The RSAI value was therefore 1.3.

For a further assay, the system named is HMS-1. The format is biochemical, E. coli 1946.
For assay [1], the target named is T1, Chromosomal, constitutive beta-lactamase enzyme (Enterobacter cloacae, UniProt P05364).
T1 construct: Normally, therefore, the beta-lactamase has to be extracted from the cells for the purpose of the present invention; endogenous in cells
The format is biochemical, E. cloacae.

The subject of another assay is PSE-3. Type of assay: biochemical, Ps.aerug. 1920E.
The target of assay [2] is T2, Chromosomal, induced beta-lactamase enzyme (Pseudomonas aeruginosa, UniProt P24735).
T2 construct: Normally, therefore, the beta-lactamase has to be extracted from the cells for the purpose of the present invention; endogenous in cells; host or cells: Pseudomonas aeruginosa 1937E grown with ampicillin
The format is biochemical, Ps.aerug. 1937E + ampicillin.

A further assay has as its system K10317. The format is biochemical, K.aerog. 10317.
Description: as §1, §2, §3, §4

A further assay deals with K1073. The format is biochemical, Klebsiella 1073.
Description: as §1, §2, §3, §4

In another assay the test system is K17. The format is biochemical, Klebsiella 17.
Description: as §1, §2, §3, §4

The next assay concerns the target OXA-3 (Pseudomonas aeruginosa, UniProt Q51429). Type of assay: biochemical, E. coli R57B. Further details: Normally, therefore, the beta-lactamase has to be extracted from the cells for the purpose of the present invention; endogenous in cells.
The next assay addresses PSE-1 (Pseudomonas aeruginosa, UniProt Q03170). Type of assay: biochemical, Ps.aerug. 1937E. Further details: Normally, therefore, the beta-lactamase has to be extracted from the cells for the purpose of the present invention; endogenous in cells.
In the next assay the target is PSE-2 (Pseudomonas aeruginosa, UniProt P14489). Type of assay: biochemical, Ps.aerug. 1973E. Further details: Normally, therefore, the beta-lactamase has to be extracted from the cells for the purpose of the present invention; endogenous in cells.
For the next assay, the target named is PSE-4 (Pseudomonas aeruginosa, UniProt P16897). Type of assay: biochemical, Ps.aerug. 1559E. On the set-up: Normally, therefore, the beta-lactamase has to be extracted from the cells for the purpose of the present invention; endogenous in cells.
The target of another assay is SHV-1 (Escherichia coli, UniProt P0AD63). Type of assay: biochemical, E. coli 2008E. On the set-up: the beta-lactamase has to be extracted from the cells for the purpose of the present invention; made in house; host or cells: E. coli 2008E (crude cell extract).
The next assay concerns the target TEM-1 (Escherichia coli, UniProt P62593). The format is biochemical, E. coli 2136E. On the set-up: the beta-lactamase has to be extracted from the cells for the purpose of the present invention; made in house; host or cells: E. coli 2136E (plasmid-bearing strain; crude cell extract).
The target in the next assay is OXA-1 (Escherichia coli, UniProt P13661). The format is biochemical, E. coli 1527E. On the set-up: the beta-lactamase has to be extracted from the cells for the purpose of the present invention; made in house; host or cells: E. coli 1527E according to the earlier reading (crude cell extract).
Assay [3] has as its target Chromosomal, hyper-induced beta-lactamase enzyme (Escherichia coli, UniProt P00811). Type of assay: biochemical, E. coli SNU35. Further details: Normally, therefore, the beta-lactamase has to be extracted from the cells for the purpose of the present invention; endogenous in cells; host or cells: E. coli SNU 35 (artificially produced strain).
In another assay the target is OXA-2 (Escherichia coli, UniProt P0A1V9). Type of assay: biochemical, E. coli R46. Further details: the beta-lactamase has to be extracted from the cells for the purpose of the present invention; made in house; host or cells: E. coli carrying R46 according to the earlier reading (crude cell extract).

Each structure is given as a SMILES string. Marks after values point to notes of the source that are not given here. Some results are limits rather than exact numbers.

Take `CO/N=C(\C(=O)N[C@@H]1C(=O)N2C(C(=O)O)=CCS[C@H]12)c1csc(N)n1` [Cefti-zoxime, ceftizoxime]: the RSAI on TEM-2 stood at 1000; with HMS-1, 66; in assay [1], 0.1; in the assay on PSE-3 it was 120; in [2] it was 500; in the assay with K10317, 630. Also, the RSAI with K1073 was 720; in the assay on K17, 220; on OXA-3, 200; at PSE-1, 360; on PSE-2 it was 128; on PSE-4, 380. Further, the RSAI on SHV-1 amounted to 1400; on TEM-1, 1000; at OXA-1 it was 50; in assay [3], 1.7; at OXA-2 it was 110.

As to `CO/N=C(\C(=O)N[C@@H]1C(=O)N2C(C(=O)O)=C(COC(N)=O)CS[C@H]12)c1ccco1` [Cefuroxime], the RSAI on TEM-2 turned out to be 40; with HMS-1, 16; in [1] it was 0.0002; in the assay with PSE-3 it was 12; in [2], 0.0001; in the assay on K10317, 14. The RSAI in the assay on K1073 is on record as 12; in the assay on K17, 2.3; on OXA-3 it was 0.003; at PSE-1 it was 50; on PSE-2, 1.7; on PSE-4 it was 34. For the same molecule, the RSAI worked out at 20 at SHV-1; 50 on TEM-1; 10 on OXA-1; 0.002 in assay [3]; 3.6 on OXA-2.

Consider `CC(=O)OCC1=C(C(=O)O)N2C(=O)[C@@H](NC(=O)Cc3cccs3)[C@H]2SC1` [Cephalo-thin, Cephalothin], for which the RSAI on TEM-2 is reported as 15; in the assay on HMS-1, 1; in [1], 0.6; in the assay with PSE-3, 0.76; in [2], 0.7; in the assay with K10317, 7. Moreover, the RSAI in the assay on K1073 stood at 5.8; in the assay with K17 it was 1.8; at OXA-3 it was 0.4; at PSE-1, 4; at PSE-2, 0.54; on PSE-4, 6. In addition, the RSAI on SHV-1 amounted to 7; at TEM-1, 10; on OXA-1, 4; in assay [3], 0.8; on OXA-2 it was 0.7.

For `Cc1nnc(SCC2=C(C(=O)O)N3C(=O)[C@@H](NC(=O)Cn4cnnn4)[C@H]3SC2)s1` [Cephalo-zolin, Cephalozolin], the RSAI at TEM-2 worked out at 48; in the assay with HMS-1 it was 0.8; in [1] it was 17; in the assay on PSE-3, 3.2; in assay [2], 15; in the assay on K10317, 30. Also, the RSAI with K1073 is given as 16; in the assay with K17, 1; at OXA-3, 3.4; on PSE-1 it was 2; on PSE-2, 1.4; at PSE-4, 2.6. In addition, the RSAI came out at 15 at SHV-1; 30 on TEM-1; 10 on OXA-1; 46 in assay [3]; 3.4 on OXA-2.

In the case of `CC1=C(C(=O)O)N2C(=O)[C@@H](NC(=O)[C@H](N)C3=CCC=CC3)[C@H]2SC1` [Cephra-dine, cephradine], the RSAI at TEM-2 is recorded as 50; with HMS-1, 25; in [1] it was 1.8; with PSE-3 it was 3.6; in assay [2] it was 1; in the assay with K10317 it was 18. Further, the RSAI in the assay on K1073 is listed as 25; in the assay with K17, 10.4; at OXA-3, 100; at PSE-1, 46; at PSE-2, 4.2; at PSE-4 it was 80. Besides, the RSAI at SHV-1 is listed as 15; at TEM-1 it was 35; at OXA-1, 420; in [3], 0.12; at OXA-2, 86.

`O=C(O)[C@H]1/C(=C/CO)O[C@@H]2CC(=O)N21` [Clavulanic acid]: the RSAI on TEM-2 is given as 0.002*; in the assay with HMS-1 it was 0.006*; in [1], 50; in the assay with PSE-3, 0.014; in assay [2], over 40; with K10317 it was 0.004*. For the same molecule, the RSAI in the assay with K1073 is recorded as 0.004*; with K17, 0.004*; on OXA-3, 1.6*; on PSE-1, 0.0001; on PSE-2, 0.4; on PSE-4 it was 0.004*. The RSAI is given as 0.006* on SHV-1; 0.003* on TEM-1; 0.02* on OXA-1; 4 in [3]; 0.9* at OXA-2. Besides, the “nature of the binding to the enzyme” value at PSE-1 is “reversibly”; on PSE-4, “irreversibly”.

In the case of `C[C@@H](O)[C@H]1C(=O)N2C(C(=O)O)=C(SCCN=CN)C[C@H]12` [MK 0787 (N-Formimidoyl-thienamycin), N-Formimidoyl-thienamycin], the RSAI on TEM-2 was found to be 0.1; in the assay on HMS-1, 1.2; in [1], 0.03; in the assay on PSE-3, 0.5; in assay [2], 0.015; in the assay on K10317 it was 0.24. In addition, the RSAI in the assay with K1073 was 1.9; in the assay with K17 it was 2.1; at OXA-3, 0.0016*; at PSE-1, 19.4; at PSE-2, 0.08; at PSE-4, 15. The RSAI at SHV-1 is given as 1.2; at TEM-1, 0.1; on OXA-1 it was 0.6*; in assay [3] it was 2; at OXA-2, 0.005*.
